One data set has as its target hCB2R(D80N) (Homo sapiens, UniProt P34972, D80N). The settings on record: female, Wistar, rat, in vivo. How it is done: The dynamic biodistribution of the radiotracer in the lower body of rats was assessed by small animal PET (Nanoscan, Mediso, Hungary) over 60 min with a subsequently T1-weighted MR. Anaesthetized (2% isoflurane, carrier gas mixture of 40% air and 60% O2) male Wistar rats (body weight: 205–308 g, age: 8–10 weeks, no gender-specific differences were taken into account) were kept during imaging on a heated animal bed to sustain body temperature and were pretreated with vehicle (DMSO:Kolliphore EL:0.9% saline, 1:2:7), JHU94620-d8 (1.5 mg kg^−1 bodyweight) or with GW405833 (5 mg kg^−1 bodyweight) 5 min prior tracer application ([^18F]JHU94620-d8: 7.7–28.2 MBq, 0.4 to 3.2 nmol kg^−1 bodyweight), whereby all injections were administered intravenously. For the evaluation of the hCB2R-specific binding of the radiotracer in the brain, female Wistar rats (n = 6, 253–269 g, age: 8 month) were used carrying stereotactically injected constructs of AAV2/7-CaMKII0.4-intron-hCB2R(D80N) in the right striatum and AAV2/7-CaMKII0.4-intron-3flag-eGFP in the control/contralateral striatum (Vandeputte et al. [2011]). 21–26 MBq corresponding to 0.2 to 2.0 nmol kg^−1 bodyweight radiotracer were injected, whereas in displacement studies 5 mg kg^−1 bodyweight GW405833 was administered 20 min after the radiotracer (each n = 3). The PET scans were performed six months after the stereotactic injections of the AAV2/7-constructs.
The acquisitions were performed in normal mode and a coincidence mode 1–5. For subsequent dynamic reconstructions list mode data were sorted into sinograms (12 × 10 s, 6 × 30 s, 5 × 60 s and 10 × 300 s). The frames were reconstructed by Ordered Subset Expectation Maximization applied to 3D (OSEM3D) sinograms corrected for decay and attenuation (4 iterations, 6 subsets and a voxel size of 0.4 mm^3) with the Nucline software v2.01 (Mediso, Budapest, Hungary). Analyses of reconstructed studies were performed with PMOD software (v4.205, PMOD Technologies LLC, Fällanden, Switzerland) and results are expressed in standardized uptake values (SUVs) or normalized to a reference region (SUVr).
(§1) From the wildtype rats used for in vivo metabolism studies a hematocrit content of 0.56 ± 0.04 (n = 11) was determined by a 5 min centrifugation of 50 µl blood in a hematocrit centrifuge at 500 g. The free plasma fraction (fp) of [^18F]JHU94620-d8 was determined gravimetrically by ultrafiltration of 100 µl rat plasma samples incubated for 5, 15, 30 and 60 min at 37 °C for 20 min at 14,000 g utilizing Nanosep® centrifugal filters (10 kDa, Pall Laboratory, USA). The brain PET images were co-registered to the PMOD integrated Px Rat (W. Schiffer) T2 MR template and the brain stem, cerebellum, left cortex and left midbrain region from the corresponding brain atlas were used for the determination of the regional TACs. Due to high spillover signals from the hCB2R(D80N) expressing region not all provided atlas regions could be evaluated. Subsequently, the total tissue distribution (VT) was estimated by 2-tissue compartment modelling. For correction of the TACs, an averaged image-derived input function (pIDIF, plasma-to-whole blood ratio corrected), determined in biodistribution studies and the parent fraction derived from metabolism studies in Wistar rats (Watabe fit) and pIDIF (3-exponential fit) were integrated into the modelling process. The binding potential was estimated by a simplified reference tissue modelling (SRTM) using the cerebellar region as reference. The parametric maps were generated with the PXMOD module.

The next data set concerns CB2R. The data set can be described thus: Quantitative autoradiography, pig spleen cryosections. The class given is binding. The settings on record: blocking with 10 µM GW405833 or self-blocking. The method, then: For quantitative autoradiography in different species, 10 µm cryosections from mouse, rat and piglet spleen were thawed, dried, and pre-incubated with incubation buffer for 10 min, dried under an airstream. Subsequently, the incubation buffer containing [^18F]JHU94620-d8 (59–137 GBq µmol^−1, 1.7–3.6 nM) was added alone or together with indicated concentrations of the reference compound. Additionally, to assess the non-specific binding of [^18F]JHU94620-d8 to cryosections GW405833 was added instead of the reference compound. After 90 min, cryosections were washed two times for 2 min with ice-cold 50 mM Tris HCl, pH7.4 and 10 s in ddH2O and subsequently dried under an airstream. For the calculation of the radioactivity concentration, 5 µl of five serial 1:2 dilutions of the incubation buffer with [^18F]JHU94620-d8 were air-dried on a microscopic slide. For binding studies in rat spleen cryosections by autoradiography with HLM-derived radiometabolites of [^18F]JHU94620-d8 obtained from the radiometabolite assay, the samples were added to the incubation buffer to a final activity concentration of 0.2 MBq mL^−1 and protocol was followed as described above. Subsequently, the slides were exposed to a phosphor imager plate. After scanning at high sensitivity and a 12.5 µm resolution with a CR35 Bio image plate scanner (Raytest Isotopenmessgeräte GmbH, Straubenhardt, Germany). […]

The format of data set [1] is in vitro ADME. The settings on record: Wistar, rat. How it is done: as §1, with “The parametric maps were generated with the PXMOD module.” left out

Chain of hCB2R(D80N) (P34972 whole entry D80N): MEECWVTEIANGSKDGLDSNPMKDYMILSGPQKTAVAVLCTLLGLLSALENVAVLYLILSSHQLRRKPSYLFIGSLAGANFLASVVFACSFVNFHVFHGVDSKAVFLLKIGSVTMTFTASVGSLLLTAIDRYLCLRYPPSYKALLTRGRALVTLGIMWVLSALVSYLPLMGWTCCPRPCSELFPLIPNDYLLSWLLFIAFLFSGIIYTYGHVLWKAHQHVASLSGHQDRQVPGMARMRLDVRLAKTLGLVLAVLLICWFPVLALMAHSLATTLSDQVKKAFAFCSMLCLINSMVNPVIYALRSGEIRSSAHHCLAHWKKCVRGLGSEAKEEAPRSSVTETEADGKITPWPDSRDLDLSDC

Regarding `[2H]C([2H])([18F])C([2H])([2H])C([2H])([2H])C([2H])([2H])n1c(C)c(C)s/c1=N\C(=O)C1C(C)(C)C1(C)C` [[^18F]JHU94620-d8], at hCB2R(D80N), the “TAC peak value, Cerebellum” value turned out to be 2.8 ± 0.2 SUVmean; the “TAC peak value, Contralateral” value was 3.3 ± 0.5 SUVmean; the “Time-to-peak, Cerebellum” value is 2.5 min; the “Time-to-peak, Contralateral” value is given as 3.5 min. For the same molecule, at hCB2R(D80N), the “Time-to-peak, hCB2R(D80N)” value is 10 min and the “VT of hCB2R(D80N) region, times higher than other investigated brain regions” value is “up to 23 times”. Also, on hCB2R(D80N) (60 min), the “SUVr60min hCB2R(D80N)-to-Cerebellum” value amounted to 47 ± 4 and the “SUVr60min hCB2R(D80N)-to-Contralateral” value came out at 10 ± 4. In addition, in the data set on CB2R, the “specific binding to CB2R” value came out at 22 ± 11%. For the same molecule, the “free plasma fraction (fp)” value in data set [1] turned out to be 0.3 ± 0.1.

(Values after publication PMC11666850, “Development and evaluation of deuterated [^18F]JHU94620 isotopologues for the non-invasive assessment of the cannabinoid type 2 receptor in brain” (EJNMMI Radiopharmacy and Chemistry, 2024).)
